# Reference: article PMC11509018, “Evaluation of the Role of Tanshinone I in an In Vitro System of Charcot-Marie-Tooth Disease Type 2N” (International Journal of Molecular Sciences, 2024)
# Entries after “also recorded” stand apart in the source; their conditions may differ.
# Key:
# AlaRS^R329H [1] = target: T1, AlaRS^R329H (Homo sapiens, UniProt P49588, R329H); experiment: ATP consumption assay (enzyme inhibition); type: biochemical; conditions: 1 μM AlaRS^R329H at 20 μM compounds; vs DMSO control
# T1 construct: made in house; host or cells: E. coli BL21 (DE3), pET-21a
# T1 sequence (P49588 1-968 R329H): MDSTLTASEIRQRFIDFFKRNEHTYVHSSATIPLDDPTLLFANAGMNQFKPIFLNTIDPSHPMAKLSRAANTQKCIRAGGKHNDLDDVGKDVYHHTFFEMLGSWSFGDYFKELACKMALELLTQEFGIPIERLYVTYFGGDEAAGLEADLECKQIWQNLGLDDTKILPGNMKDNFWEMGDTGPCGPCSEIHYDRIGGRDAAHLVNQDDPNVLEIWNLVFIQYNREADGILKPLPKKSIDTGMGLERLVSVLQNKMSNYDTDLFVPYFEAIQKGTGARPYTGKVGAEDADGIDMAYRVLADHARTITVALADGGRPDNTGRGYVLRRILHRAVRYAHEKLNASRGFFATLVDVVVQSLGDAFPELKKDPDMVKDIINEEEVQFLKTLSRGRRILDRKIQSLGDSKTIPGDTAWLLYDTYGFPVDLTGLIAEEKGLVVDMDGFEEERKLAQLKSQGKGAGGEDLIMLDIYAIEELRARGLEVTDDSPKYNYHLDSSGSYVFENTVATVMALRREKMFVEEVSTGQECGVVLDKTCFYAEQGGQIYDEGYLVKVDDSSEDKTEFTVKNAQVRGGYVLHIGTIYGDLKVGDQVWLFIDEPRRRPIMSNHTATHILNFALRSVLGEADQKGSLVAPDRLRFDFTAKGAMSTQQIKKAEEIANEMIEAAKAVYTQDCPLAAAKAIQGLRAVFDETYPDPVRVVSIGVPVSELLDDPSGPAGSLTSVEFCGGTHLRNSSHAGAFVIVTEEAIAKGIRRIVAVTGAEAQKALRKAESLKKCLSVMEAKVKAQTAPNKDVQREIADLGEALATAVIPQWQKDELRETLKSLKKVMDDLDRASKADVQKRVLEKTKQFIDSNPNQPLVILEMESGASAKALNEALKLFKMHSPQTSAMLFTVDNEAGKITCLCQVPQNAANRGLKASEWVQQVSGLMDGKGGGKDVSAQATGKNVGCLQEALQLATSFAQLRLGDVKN
# Experimental: We further investigated the effects of the four small molecules on the enzymatic activity of the AlaRS^R329H protein using an ATP consumption assay. All four compounds affected enzymatic activity to varying degrees. […] The ATP consumption assay was used to evaluate the enzymatic inhibitory activity of the compounds. A 30 μL reaction mixture, containing 1 μM AlaRS mutants, 25 μM ATP, 50 μM L-alanine, 30 mM HEPES (pH 7.5), 150 mM NaCl, 30 mM KCl, 40 mM MgCl2, 0.1% BSA, and varying concentrations of Tanshinone I, was incubated at room temperature for 15 min. After incubation, 10 μL of the mixture was transferred to a 384-well microplate, and AlaRS mutant activity was measured by adding 10 μL of the ATP Assay Kit (#S0026, Beyotime, Shanghai, China). Luminescence was recorded using a Synergy HTX multimode microplate reader (BioTek Inc., Winooski, VT, USA). The inhibitory rate was calculated from three independent assays to ensure the accurate assessment of Tanshinone I’s inhibitory activity. The experiment was repeated three times.
# AlaRS^R329H [2] = target: T1, AlaRS^R329H; experiment: Proteolytic digestion assay (trypsin, SDS-PAGE); conditions: 3 h
# Experimental: To delve deeper into the impact of selected small molecules on the structural conformation of AlaRS^R329H proteins, a series of proteolysis experiments were conducted. The small molecules were incubated with AlaRS^R329H proteins at room temperature for three hours, followed by SDS-PAGE analysis to evaluate their effects on the distribution of the digestion fragments. […] The AlaRS^R329H proteins (in the presence and absence of Atazanavir sulfate, Tanshinone I, Hederacolchiside A1, and Hexylresorcinol) were incubated with trypsin at different concentrations for 3 h before the reactions were quenched, and the products were separated by SDS-PAGE.
structure (smiles),measurement,setting,value
Cc1coc2c1C(=O)C(=O)c1c-2ccc2c(C)cccc12 [Tanshinone I],Relative Activity (relative enzyme activity of the first step),AlaRS^R329H [1],26.2%
same,Effect on distribution of digestion fragments / conformation,AlaRS^R329H [2],markedly altered the digestion fragment pattern; also recorded: significant change in the distribution of the bands
